Consider 16 compounds from US20260356851A1, “TRICYCLIC COMPOUNDS AND USES THEREOF” (HUTCHMED LIMITED, priority 2023, published 2026).

The IC50 is the concentration needed to halve the response being measured.

A value given as a limit tells only on which side of the number the result lay.

Assay type in all cases: cell-based
For test [1], the target named is T1, pERK1/2 (Thr202/Tyr204), NCI-1H441 (KRAS G12V) (Homo sapiens, UniProt P01116, G12V).
T1 construct: pERK1/2 HTRF read-out
The test is described as follows: Assay of intracellular pERK1/2 (Thr202/Tyr204) phosphorylation in NCI-H441 cells (KRAS G12V). Conditions: pERK1/2, 2 days, read-out: NCI-H441 (KRAS G12V) IC50. A digest of the protocol:
(§1)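 HTRF detection of Thr202/Tyr204-phosphorylated ERK1/2 (665/615 nm ratio) in lysates from cells treated 2 days with serially 3-fold diluted compound.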

For test [2], the target named is T2, pERK1/2 (Thr202/Tyr204), NCI-1H358 (KRAS G12C) (Homo sapiens, UniProt P01116, G12C).
T2 construct: pERK1/2 HTRF read-out
T2 sequence (P01116 1-188 isoform P01116-2 G12C): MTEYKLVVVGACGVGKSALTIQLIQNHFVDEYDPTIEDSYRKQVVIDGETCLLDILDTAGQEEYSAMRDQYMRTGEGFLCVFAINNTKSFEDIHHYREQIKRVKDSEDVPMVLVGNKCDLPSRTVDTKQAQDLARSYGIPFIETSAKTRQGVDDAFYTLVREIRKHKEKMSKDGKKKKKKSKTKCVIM
In words: Assay of intracellular pERK1/2 (Thr202/Tyr204) phosphorylation in NCI-H358 cells (KRAS G12C). Conditions: pERK1/2, 2 days, read-out: NCI-H358 (KRAS G12C) IC50. The procedure, abridged:
as §1

Test [3] deals with T3, pERK1/2 (Thr202/Tyr204), PANC-1 (KRAS G121D) (Homo sapiens, UniProt P01116, G12D).
T3 construct: pERK1/2 HTRF read-out
T3 sequence (P01116 1-188 isoform P01116-2 G12D): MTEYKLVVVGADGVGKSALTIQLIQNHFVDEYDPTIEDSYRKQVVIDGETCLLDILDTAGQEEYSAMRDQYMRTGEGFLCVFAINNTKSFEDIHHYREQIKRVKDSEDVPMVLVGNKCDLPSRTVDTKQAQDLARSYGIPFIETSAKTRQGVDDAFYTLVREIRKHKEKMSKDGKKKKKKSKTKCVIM
The test is described as follows: Assay of intracellular pERK1/2 (Thr202/Tyr204) phosphorylation in PANC-1 cells (KRAS G12D). Conditions: pERK1/2, 2 days, read-out: PANC-1 (KRAS G12D) IC50. A digest of the protocol: as §1

T1 sequence (P01116 1-188 isoform P01116-2 G12V): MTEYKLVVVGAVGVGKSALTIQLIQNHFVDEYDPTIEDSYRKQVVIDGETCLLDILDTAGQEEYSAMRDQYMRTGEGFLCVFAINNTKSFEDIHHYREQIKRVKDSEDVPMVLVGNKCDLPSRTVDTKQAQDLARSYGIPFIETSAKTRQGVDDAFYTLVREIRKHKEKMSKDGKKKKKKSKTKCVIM

Turning to `CC(c1cccnc1N)N1CCOc2nc(-c3cc(N)cc(F)c3C(F)(F)F)c(F)c3nc(OC[C@@H]4C[C@@H](F)CN4C)nc1c23` (single isomer, unassigned) [Compound 93, 3-((R or S)-1-(5-(5-amino-3-fluoro-2-(trifluoromethyl)phenyl)-4-fluoro-2-(((2S,4R)-4-fluoro-1-methylpyrrolidin-2-yl)methoxy)-8,9-dihydro-10H-7-oxa-1,3,6,10-tetraazacyclohepta[de]naphthalen-10-yl)ethyl)pyridin-2-amine], the IC50 in test [1], in test [2] and in test [3] was above 100 nM each time.

`[2H]C([2H])([2H])N1CCC[C@H]1COc1nc2c3c(nc(-c4cc(N)cc(C)c4C(F)(F)F)c(F)c3n1)OCCN2C(C)c1cccnc1N` (single isomer, unassigned) [Compound 95, 3-((R or S)-1-(5-(5-amino-3-methyl-2-(trifluoromethyl)phenyl)-4-fluoro-2-(((S)-1-(methyl-d3)pyrrolidin-2-yl)methoxy)-8,9-dihydro-10H-7-oxa-1,3,6,10-tetraazacyclohepta[de]naphthalen-10-yl)ethyl)pyridin-2-amine]: the results for the IC50 in test [1], in test [2] and in test [3] were 2 nM, 0.8 nM and 24 nM, respectively.

As for `[2H]C([2H])([2H])N1CCC[C@H]1COc1nc2c3c(nc(-c4cc(N)cc(C)c4C(F)(F)F)c(F)c3n1)OCCN2C(C)c1cccnc1N` (single isomer, unassigned) [Compound 96, 3-((R or S)-1-(5-(5-amino-3-methyl-2-(trifluoromethyl)phenyl)-4-fluoro-2-(((S)-1-(methyl-d3)pyrrolidin-2-yl)methoxy)-8,9-], the IC50 was 57 nM in test [1], 27 nM in test [2] and above 100 nM in test [3].

Turning to `CC(c1cccnc1N)N1CCOc2nc(-c3cc(N)cc(Cl)c3C(F)(F)F)c(F)c3nc(OC[C@@H]4CCCN4C)nc1c23` (single isomer, unassigned) [Compound 98, 3-((R or S)-1-(5-(5-amino-3-chloro-2-(trifluoromethyl)phenyl)-4-fluoro-2-(((S)-1-methylpyrrolidin-2-yl)methoxy)-8,9-dihydro-10H-7-oxa-1,3,6,10-tetraazacyclohepta[de]naphthalen-10-yl)ethyl)pyridin-2-amine], the values for the half-maximal inhibitory concentration (IC50) in test [1], in test [2] and in test [3] were 0.5 nM, 0.3 nM and 10 nM, respectively.

With `CC(c1cccnc1N)N1CCOc2nc(-c3cc(N)cc(Cl)c3C(F)(F)F)c(F)c3nc(OC[C@@H]4CCCN4C)nc1c23` (single isomer, unassigned) [Compound 99, 3-((R or S)-1-(5-(5-amino-3-chloro-2-(trifluoromethyl)phenyl)-4-fluoro-2-(((S)-1-methylpyrrolidin-2-yl)methoxy)-8,9-dihydro-10H-7-oxa-1,3,6,10-tetraazacyclohepta[de]naphthalen-10-yl)ethyl)pyridin-2-amine], the half-maximal inhibitory concentration (IC50) in test [1] was 33 nM; in test [2], 27 nM; in test [3], above 100 nM.

In the case of `Cc1cc(N)cc(-c2nc3c4c(nc(OC[C@]56CCCN5[C@@H](CO)CC6)nc4c2F)N([C@H](C)c2cccnc2N)CCO3)c1C(F)(F)F` (single isomer, unassigned) [Compound 100, ((3R,7aR)-7a-(((5-(5-amino-3-methyl-2-(trifluoromethyl)phenyl)-10-((R or S)-1-(2-aminopyridin-3-yl)ethyl)-4-fluoro-9,10-dihydro-8H-7-oxa-1,3,6,10-tetraazacyclohepta[de]naphthalen-2-yl)oxy)methyl)hexahydro-1H-pyrrrolizin-3-yl)methanol], the values for the IC50 in test [1], in test [2] and in test [3] were above 100 nM, 93 nM and above 100 nM, respectively.

On to `Cc1cc(N)cc(-c2nc3c4c(nc(OC[C@]56CCCN5[C@@H](CO)CC6)nc4c2F)N(C(C)c2cccnc2N)CCO3)c1C(F)(F)F` (single isomer, unassigned) [Compound 101, ((3R,7aR)-7a-(((5-(5-amino-3-methyl-2-(trifluoromethyl)phenyl)-10-((R or S)-1-(2-aminopyridin-3-yl)ethyl)-4-fluoro-9,10-dihydro-8H-7-oxa-1,3,6,10-tetraazacyclohepta[de]naphthalen-2-yl)oxy)methyl)hexahydro-1H-pyrrolizin-3-yl)methanol], for which the IC50 in test [1], in test [2] and in test [3] was above 100 nM each time.

For the compound `[2H]C([2H])(Oc1nc2c3c(nc(-c4cc(N)cc(C)c4C(F)(F)F)c(F)c3n1)OCCN2C(C)c1cccnc1N)[C@@H]1CCC([2H])([2H])N1C([2H])([2H])[2H]` (single isomer, unassigned) [Compound 102, 3-((R or S)-1-(5-(5-amino-3-methyl-2-(trifluoromethyl)phenyl)-4-fluoro-2-(((S)-1-(methyl-d3)pyrrolidin-2-yl-5,5-d2)methoxy-d2)-8,9-dihydro-10H-7-oxa-1,3,6,10-tetraazacyclohepta[de]naphthalen-10-yl)ethyl)pyridin-2-amine], the IC50 in test [1] is 2 nM; in test [2], 0.8 nM; in test [3], 38 nM.

`[2H]C([2H])(Oc1nc2c3c(nc(-c4cc(N)cc(C)c4C(F)(F)F)c(F)c3n1)OCCN2C(C)c1cccnc1N)[C@@H]1CCC([2H])([2H])N1C([2H])([2H])[2H]` (single isomer, unassigned) [Compound 103, 3-((R or S)-1-(5-(5-amino-3-methyl-2-(trifluoromethyl)phenyl)-4-fluoro-2-(((S)-1-(methyl-d3)pyrrolidin-2-yl-5,5-d2)methoxy-d2)-8,9-dihydro-10H-7-oxa-1,3,6,10-tetraazacyclohepta[de]naphthalen-10-yl)ethyl)pyridin-2-amine]: the IC50 was above 100 nM in test [1], 60 nM in test [2] and above 100 nM in test [3].

As for `Cc1cc(N)cc(-c2nc3c4c(nc(OC[C@@H]5CCCN5)nc4c2F)N(C(C)c2cccnc2N)CCO3)c1C(F)(F)F` (single isomer, unassigned) [Compound 106], the IC50 in test [1], in test [2] and in test [3] was above 100 nM throughout.

Take `Cc1cc(N)cc(-c2nc3c4c(nc(N5CCC[C@H]5CO)nc4c2F)N(C(C)c2cccnc2N)CCO3)c1C(F)(F)F` (single isomer, unassigned) [Compound 107]: the IC50 in test [1] is above 100 nM; in test [2], 89 nM; in test [3], above 100 nM.

In the case of `Cc1cc(N)cc(-c2nc3c4c(nc(OC[C@H]5CCCN5C)nc4c2F)N(C(C)c2cccnc2N)CCO3)c1C(F)(F)F` (single isomer, unassigned) [Compound 109, 3-((R or S)-1-(5-(5-amino-3-methyl-2-(trifluoromethyl)phenyl)-4-fluoro-2-(((R)-1-methylpyrrolidin-2-yl)methoxy)-8,9-dihydro-10H-7-oxa-1,3,6,10-tetraazacyclohepta[de]naphthalen-10-yl)ethyl)pyridin-2-amine], the concentration for half-maximal inhibition (IC50) in test [1] came out at 2 nM; in test [2] it was 0.9 nM; in test [3], 41 nM.

As for `Cc1cc(N)cc(-c2nc3c4c(nc(OC[C@H]5CCCN5C)nc4c2F)N(C(C)c2cccnc2N)CCO3)c1C(F)(F)F` (single isomer, unassigned) [Compound 110, 3-((R or S)-1-(5-(5-amino-3-methyl-2-(trifluoromethyl)phenyl)-4-fluoro-2-(((R)-1-methylpyrrolidin-2-yl)methoxy)-8,9-dihydro-10H-7-oxa-1,3,6,10-tetraazacyclohepta[de]naphthalen-10-yl)ethyl)pyridin-2-amine], the IC50 in test [1], in test [2] and in test [3] was above 100 nM each time.

For the compound `[2H]C1([2H])CC[C@@]2(C([2H])([2H])Oc3nc4c5c(nc(-c6cc(N)cc(C)c6C(F)(F)F)c(F)c5n3)OCCN4C(C)c3cccnc3N)C[C@@H](F)CN12` (single isomer, unassigned) [Compound 115, 3-((R or S)-1-(5-(5-amino-3-methyl-2-(trifluoromethyl)phenyl)-4-fluoro-2-(((2R,7aS)-2-fluorotetrahydro-1H-pyrrolizin-7a(5H)-yl-5,5-d2)methoxy-d2)-8,9-dihydro-10H-7-oxa-1,3,6,10-tetraazacyclohepta[de]naphthalen-10-yl)ethyl)pyridin-2-amine], the IC50 in test [1] came out at 0.2 nM; in test [2] it was 0.2 nM; in test [3] it was 0.9 nM.

Take `[2H]C1([2H])CC[C@@]2(C([2H])([2H])Oc3nc4c5c(nc(-c6cc(N)cc(C)c6C(F)(F)F)c(F)c5n3)OCCN4C(C)c3cccnc3N)C[C@@H](F)CN12` (single isomer, unassigned) [Compound 116, 3-((R or S)-1-(5-(5-amino-3-methyl-2-(trifluoromethyl)phenyl)-4-fluoro-2-(((2R,7aS)-2-fluorotetrahydro-1H-pyrrolizin-7a(5H)-yl-5,5-d2)methoxy-d2)-8,9-dihydro-10H-7-oxa-1,3,6,10-tetraazacyclohepta[de]naphthalen-10-yl)ethyl)pyridin-2-amine]: the values for the concentration for half-maximal inhibition (IC50) in test [1], in test [2] and in test [3] were 9 nM, 4 nM and 23 nM, respectively.

Turning to `Cc1cc(N)cc(-c2nc3c4c(nc(OCC5CCOCC5)nc4c2F)N(C(C)c2cccnc2N)CCO3)c1C(F)(F)F` (single isomer, unassigned) [Compound 117, (R or S)-3-(1-(5-(5-amino-3-methyl-2-(trifluoromethyl)phenyl)-4-fluoro-2-((tetrahydro-2H-pyran-4-yl)methoxy)-8,9-dihydro-10H-7-oxa-1,3,6,10-tetraazacyclohepta[de]naphthalen-10-yl)ethyl)pyridin-2-amine], the IC50 in test [1] is 36 nM; in test [2], 26 nM; in test [3] it was above 100 nM.
